Experimental data published in patent US5538962A, “Antibiotic penem compounds” (Zeneca Limited, priority 1992, dated 1996).
Converted amounts (≈) assume the structure as drawn.

Columns and labels:
Assay in all cases: MIC, in vitro Diagnostic Sensitivity Test, agar-dilution technique
Type in all cases: cell-based
E. coli TEM = details: Escherichia coli, read-out: minimum inhibitory concentration (MIC)
Text: (§1) The following results were obtained for representative compounds on a standard in vitro test system using Diagnostic Sensitivity Test. The antibacterial activity is described in terms of the minimum inhibitory concentration (MIC) determined by the agar-dilution technique with an inocukum size of 10^4 CFU/spot.

Enterbacter cloacae 108 = details: inoculum 10^4 CFU/spot, read-out: minimum inhibitory concentration (MIC)
Text: as §1

Enterobacter cloacae 029 = details: inoculum 10^4 CFU/spot, read-out: minimum inhibitory concentration (MIC)
Text: as §1

S. aureus 147N = details: Staphylococcus aureus, inoculum 10^4 CFU/spot, read-out: minimum inhibitory concentration (MIC)
Text: as §1

Structure (SMILES) | MIC (E. coli TEM) | MIC (Enterbacter cloacae 108) | MIC (Enterobacter cloacae 029) | MIC (S. aureus 147N)
CC(O)C1C(=O)N2C(C(=O)O)=C(SC3CNC(C(=O)Nc4csc(C(=O)O)c4)C3)SC12 [Example 1, (5R,6S,8R,2'S,4'S)-2-(2-(2-carboxy-4-thienylcarbamoyl)pyrrolidin-4-ylthio)-6-(1-hydroxyethyl)pen-2-em-3-carboxlic acid] | 0.008 µg/mL (≈ 0.0165 µM) | 0.5 µg/mL (≈ 1.03 µM) | 0.015 µg/mL (≈ 0.0309 µM) | 0.125 µg/mL (≈ 0.257 µM)
CO/N=C(\C(=O)N[C@@H]1C(=O)N2C(C(=O)O)=C(CSc3nc(=O)c(=O)[nH]n3C)CS[C@H]12)c1csc(N)n1 [ceftriaxone] | 0.03 µg/mL (≈ 0.0541 µM) | 32 µg/mL (≈ 57.7 µM) | 0.06 µg/mL (≈ 0.108 µM) | 2 µg/mL (≈ 3.61 µM)
